Experimental data as given in the NIST ThermoML archive (doi:10.1016/j.jct.2018.05.004).
Numbers after ± are expanded uncertainties.

Assay: mn = molality of the nth substance listed, in mol/kg
Conditions: 100 kPa, Liquid; for speed of sound: Frequency=3 MHz, Single path-length method; for mass density: Vibrating tube method

OC[C@H]1O[C@@](CO)(O[C@H]2O[C@H](CO)[C@@H](O)[C@H](O)[C@H]2O)[C@@H](O)[C@@H]1O [D-sucrose] + O
Conditions | mass density, 288.15 K [kg/m3] | mass density, 298.15 K [kg/m3] | mass density, 308.15 K [kg/m3] | mass density, 318.15 K [kg/m3] | speed of sound, 288.15 K [m/s] | speed of sound, 298.15 K [m/s] | speed of sound, 308.15 K [m/s] | speed of sound, 318.15 K [m/s]
m1 = 0.1002 | 1012.01 ± 8 | 1009.81 ± 8 | 1006.68 ± 8 | 1002.77 ± 8 | 1476.3 ± 16 | 1506 ± 16 | 1528.2 ± 16 | 1544 ± 16
m1 = 0.2007 | 1024.37 ± 8 | 1022.04 ± 8 | 1018.8 ± 8 | 1014.82 ± 8 | 1486.2 ± 16 | 1515 ± 16 | 1536.5 ± 16 | 1552.6 ± 16
m1 = 0.3011 | 1036.19 ± 8 | 1033.73 ± 8 | 1030.39 ± 8 | 1026.34 ± 8 | 1496 ± 16 | 1524 ± 16 | 1544.7 ± 16 | 1560.1 ± 16
m1 = 0.4034 | 1047.72 ± 8.1 | 1045.13 ± 8 | 1041.69 ± 8 | 1037.58 ± 8 | 1506 ± 16 | 1533.2 ± 16 | 1553.1 ± 16 | 1567.7 ± 16
m1 = 0.4996 | 1058.12 ± 8.1 | 1055.43 ± 8.1 | 1051.89 ± 8.1 | 1047.73 ± 8.1 | 1515.3 ± 16 | 1541.7 ± 16 | 1561 ± 16 | 1576 ± 16
m1 = 0.6018 | 1068.73 ± 8.1 | 1065.92 ± 8.1 | 1062.29 ± 8.1 | 1058.07 ± 8.1 | 1525.2 ± 16 | 1550.6 ± 16 | 1569.3 ± 16 | 1584.2 ± 16
m1 = 0.7022 | 1078.71 ± 8.1 | 1075.81 ± 8.1 | 1072.09 ± 8.1 | 1067.82 ± 8.1 | 1534.9 ± 16 | 1559.3 ± 16 | 1577.2 ± 16 | 1592 ± 16
m1 = 0.7978 | 1087.87 ± 8.1 | 1084.86 ± 8.1 | 1081.07 ± 8.1 | 1076.72 ± 8.1 | 1543.9 ± 16 | 1567.4 ± 16 | 1584.8 ± 16 | 1599.6 ± 16
m1 = 0.8955 | 1096.86 ± 8.2 | 1093.77 ± 8.2 | 1089.9 ± 8.2 | 1085.49 ± 8.2 | 1552.9 ± 16 | 1575.6 ± 16 | 1592.3 ± 16 | 1606.7 ± 16
m1 = 0.9969 | 1105.83 ± 8.2 | 1102.65 ± 8.2 | 1098.71 ± 8.2 | 1094.23 ± 8.2 | 1562.2 ± 16 | 1583.8 ± 16 | 1600.1 ± 16 | 1614.4 ± 16

O=C([O-])CC(O)(CC(=O)[O-])C(=O)[O-].[NH4+].[NH4+].[NH4+] [ammonium 2-hydroxypropane-1,2,3-tricarboxylate] + O
Conditions | mass density, 288.15 K [kg/m3] | mass density, 298.15 K [kg/m3] | mass density, 308.15 K [kg/m3] | mass density, 318.15 K [kg/m3] | speed of sound, 288.15 K [m/s] | speed of sound, 298.15 K [m/s] | speed of sound, 308.15 K [m/s] | speed of sound, 318.15 K [m/s]
m1 = 0.2 | 1021.37 ± 8 | 1019 ± 8 | 1015.71 ± 8 | 1011.75 ± 8 | 1503.1 ± 16 | 1532 ± 16 | 1553.5 ± 16 | 1569 ± 16
m1 = 0.4 | 1043.45 ± 8 | 1040.15 ± 8 | 1037.34 ± 8 | 1033.31 ± 8 | 1540.4 ± 16 | 1567.3 ± 16 | 1587.8 ± 16 | 1602.3 ± 16
m1 = 0.6 | 1063.76 ± 8.1 | 1060.41 ± 8.1 | 1057.21 ± 8.1 | 1052.93 ± 8.1 | 1578.7 ± 16 | 1603.6 ± 16 | 1621.9 ± 16 | 1635.4 ± 16

O=C([O-])CC(O)(CC(=O)[O-])C(=O)[O-].[Li+].[Li+].[Li+] [trilithium citrate] + O
Conditions | mass density, 288.15 K [kg/m3] | mass density, 298.15 K [kg/m3] | mass density, 308.15 K [kg/m3] | mass density, 318.15 K [kg/m3] | speed of sound, 288.15 K [m/s] | speed of sound, 298.15 K [m/s] | speed of sound, 308.15 K [m/s] | speed of sound, 318.15 K [m/s]
m1 = 0.2 | 1027.21 ± 8 | 1025.32 ± 8 | 1021.67 ± 8 | 1017.79 ± 8 | 1509.2 ± 16 | 1535.8 ± 16 | 1556 ± 16 | 1570.2 ± 16
m1 = 0.4 | 1052.75 ± 8.1 | 1050.41 ± 8.1 | 1046.92 ± 8.1 | 1042.96 ± 8.1 | 1548 ± 16 | 1572.6 ± 16 | 1590.3 ± 16 | 1602.4 ± 16
m1 = 0.6 | 1078.28 ± 8.1 | 1075.38 ± 8.1 | 1071.84 ± 8.1 | 1068 ± 8.1 | 1589.2 ± 16 | 1610.5 ± 16 | 1625.9 ± 16 | 1635.7 ± 16
